Source: patent publication US10016356B2, “Sebum secretion inhibitory agent” (BASF Beauty Care Solutions France S.A.S., priority 2008, dated 2018)

Tests used:
[1] = test system: Caucasian and Asian volunteers; test: Clinical assessment of pore size and shiny appearance in volunteers applying the product once a day; assay type: in vivo, human; details: after 28 days of treatment, extract at 2%, zinc gluconate 1%
Method: (§1) Caucasian and Asian volunteers applied a test product once a day, in blind conditions. Clinical and instrumental assessments, by application of Sebutape™ patches, were carried out on D0, D14 and D28 and the contents of these samples of Sebutape™ patches were analysed quantitatively by image analyser (polarimetric imaging). Determination of the squalene taken in the Sebutape™ patches was carried out as follows:
(§2) The experiment was conducted on Caucasian and Asian volunteers according to the conditions described in Example 3 for 28 days of treatment (last application on D27 in the evening). Assessments carried out on D30 allowed the persistence of the effect of an extract according to the invention on the production of sebum to be evaluated, two days after stopping the treatment.

[2] = test system: Caucasian and Asian volunteers; test: Number of active sebaceous glands (number of spots on Sebutape patches, image analysis); assay type: in vivo, human; details: extract at 2%, zinc gluconate 1%
Method: (§3) The principle of this evaluation is based on the clinical and instrumental analysis of samples of secretions of sebum using Sebutape™ patches according to the conventional method.
as §1
At 28 days of treatment, the number of active sebaceous glands had decreased by 7.4% in the subjects who had applied the extract according to Example 1a) at 2% (measurement of the number of spots present on the patches compared against D0).
as §2

[3] = test system: squalene synthesis on explants of normal human skin; test: Biosynthesis of squalene from 4-14C mevalonate on explants of normal human skin (in vitro); assay type: cell-based; details: percentage relative to untreated negative control; extracts of culture media; 24 h; n=3 biopsies; extract at 2%, zinc gluconate at 1%
Method: The principle of this evaluation is based on the measurement of the biosynthesis of squalene, a specific tracer of the production of human sebum by the sebocytes, from radiolabelled mevalonic acid.
1) Freshly taken biopsies of human skin (n=3) are incubated in 5 ml of culture medium in the presence or absence of the test products for 24 h.
2) An amount of radioactive products of 2 μCi of mevalonate 4-^14C is then added to the biopsies and the whole is incubated again for 24 h.
3) Extraction of the culture media and of the surface of the skin is carried out with isopropyl ether, then the skin samples are dried and weighed as dry weight.
4) The extraction products are analysed by thin-layer chromatography and the quantity of metabolites of ^14C-mevalonate (squalene) is evaluated.
The squalene on the surface of the skin in culture is extracted, then deposited on HPTLC (high-performance thin layer chromatography) plates and migrated after addition of 10 μg of a squalene standard by deposition in the presence of heptane as migration solvent. The radioactivity of the squalene is visualized in a conventional manner. Each radioactive spot corresponding to squalene is scraped onto the HPTLC plates and the radioactivity is measured using a scintillation counter. Each count was expressed in grams of dry tissue. […]

[4] = test system: Asian volunteers; test: Self-evaluation of skin texture (refinement of skin grain); assay type: in vivo, human; details: 2 days after stopping the 28-day treatment, extract at 2%, zinc gluconate positive control
Method: as §2
Moreover, 2 days after stopping the treatment, 71% of the Asian volunteers who had applied the extract according to Example 1a) at 2% declared that there was refinement of their skin grain (p<0.05). In comparison, only 52% of the volunteers in the group of volunteers who had applied the positive control (zinc gluconate) noticed an improvement in this parameter.

[5] = test system: Caucasian and Asian volunteers; test: Determination of squalene in Sebutape patches (HPTLC, densitometry); assay type: in vivo, human; details: after 28 days of treatment; zinc gluconate 1%
Method: as §3, §1
The Sebutape™ patches were treated by extraction with 10 ml of ether. The lipid residues were deposited on an HPTLC silica gel nanoplate on an aluminium support, one lane of which was reserved for receiving a deposit of 10 μg of squalene standard.
The contents of the plates were subjected to migration in heptane.
The squalene spots were then quantified by densitometry using an instrument of the ChromatoScan CS-93 (Shimadzu) type. Reading was based on absorption at 450 nm and the area of the peaks was expressed in arbitrary units in the table of results given below.

zinc gluconate
pore size reduced by (clinical assessment) [1]: 17.5% | Active sebaceous glands, % Dn/D 0 ([2]; 2 days after D 28 (after stopping the treatment)): −3.8% | Active sebaceous glands, % Dn/D 0 ([2]; D 28): +8.5% | Measurement of squalene synthesis, Mean value [3]: 76.6% | volunteers declaring refinement of their skin grain (self-evaluation) [4]: 52% | change of content of squalene in the sebum (signed) [5]: −14%
